± gives the standard deviation of the averaged measurements.
How the values were obtained:
Test in all cases: level (log10 ratio to DMSO vehicle control); higher = higher biomarker level / cell amount than vehicle control
[1] = compound: C=C(C)C(=O)OCCC(F)(F)C(F)(F)C(F)(F)C(F)(F)C(F)(F)C(F)(F)C(F)(F)C(F)(F)F [8:2 Fluorotelomer methacrylate] (in DMSO)
Method: (§1)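 BioMAP Diversity Plus panel of 12 human primary cell co-culture systems (3C, 4H, LPS, SAg, BT, BF4T, BE3C, CASM3C, HDF3CGF, KF3CT, MyoF, Mphg). Compounds were added 1 h before stimulation and left for 24 h (MyoF 48 h; BT 72 h for soluble read-outs or 6 d for IgG). Biomarkers were read by ELISA, cytotoxicity by SRB, PBMC viability and proliferation by Alamar Blue. Each well value was divided by the mean of 8 DMSO control wells on the same plate and log10 transformed; duplicate blinded samples were tested at 4 concentrations.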

Octafluoroadipic acid = compound: O=C(O)C(F)(F)C(F)(F)C(F)(F)C(F)(F)C(=O)O [Octafluoroadipic acid] (in DMSO)
Method: as §1

Perfluoroundecanoic acid = compound: O=C(O)C(F)(F)C(F)(F)C(F)(F)C(F)(F)C(F)(F)C(F)(F)C(F)(F)C(F)(F)C(F)(F)C(F)(F)F [Perfluoroundecanoic acid] (in DMSO); conditions: 6700 nM
Method: as §1

[2] = compound: O=C(O)CCC(F)(C(F)(F)F)C(F)(F)F [4,4-bis(Trifluoromethyl)-4-fluoropropanoic acid] (in DMSO)
Method: as §1

[3] = compound: O=S(=O)(O)C(F)(F)C(F)(F)C(F)(F)C(F)(F)C(F)(F)C(F)(F)C(F)(F)F [Perfluoroheptanesulfonic acid] (in DMSO)
Method: as §1

[4] = compound: OCC(F)(F)C(F)(F)C(F)(F)C(F)F [1H,1H,5H-Perfluoropentanol] (in DMSO)
Method: as §1

[5] = compound: OCCC(F)(F)C(F)(F)C(F)(F)C(F)(F)F [4:2 Fluorotelomer alcohol] (in DMSO)
Method: as §1

Test System	level (log10) ([1]; 6700 nM)	level (log10) ([1]; 20000 nM)	level (log10) (Octafluoroadipic acid; 6700 nM)	level (log10) (Octafluoroadipic acid; 20000 nM)	level (log10) (Octafluoroadipic acid; 60000 nM)	level (log10) (Perfluoroundecanoic acid)	level (log10) ([2]; 6700 nM)	level (log10) ([2]; 20000 nM)	level (log10) ([2]; 60000 nM)	level (log10) ([3]; 1500 nM)	level (log10) ([3]; 4400 nM)	level (log10) ([3]; 13000 nM)	level (log10) ([3]; 40000 nM)	level (log10) ([4]; 6700 nM)	level (log10) ([4]; 20000 nM)	level (log10) ([4]; 60000 nM)	level (log10) ([5]; 6700 nM)	level (log10) ([5]; 20000 nM)	level (log10) ([5]; 60000 nM)
BF4T:CD90	-0.0165 ± 0.015	0 ± 0.0099	0.005 ± 0.0042	-0.0075 ± 0.0035	-0.006	-0.016 ± 0.0028	-0.0095 ± 0.026	-0.0055 ± 0.019	0.0005 ± 0.0078	-0.004 ± 0.0014	-0.004	-0.027 ± 0.0085	-0.0205 ± 0.013	-0.011 ± 0.0085	0.0005 ± 0.00071	0.003 ± 0.0057	-0.0285 ± 0.0078	-0.0085 ± 0.03	-0.0125 ± 0.0064
LPS:CD106/VCAM-1	-0.032 ± 0.054	-0.0515 ± 0.049	-0.0235 ± 0.037	-0.0175 ± 0.025	-0.017 ± 0.048	-0.0095 ± 0.043	-0.016 ± 0.034	-0.0255 ± 0.0092	-0.023 ± 0.021	0.015 ± 0.023	0.009 ± 0.031	-0.0235 ± 0.052	-0.01 ± 0.035	0.007 ± 0.014	-0.008 ± 0.0042	0.0095 ± 0.0035	-0.017 ± 0.014	-0.0145 ± 0.005	0.0075 ± 0.00071
BF4T:MMP-1	-0.01 ± 0.0085	0.0055 ± 0.00071	0.0065 ± 0.011	-0.0025 ± 0.015	0.007 ± 0.0028	-0.0045 ± 0.005	-0.0025 ± 0.012	-0.0015 ± 0.00071	-0.004 ± 0.013	0.0055 ± 0.0078	-0.0055 ± 0.005	-0.019 ± 0.0014	0.0225 ± 0.0092	0.002 ± 0.018	0.0095 ± 0.018	0.012 ± 0.033	-0.008 ± 0.031	-0.0005 ± 0.036	0.0085 ± 0.015
LPS:CCL2/MCP-1	-0.0045 ± 0.047	0.042 ± 0.0085	-0.0015 ± 0.044	-0.0045 ± 0.026	0.0205 ± 0.0078	0.0015 ± 0.0078	0.024 ± 0.037	0 ± 0.014	0.0155 ± 0.07	0.0045 ± 0.037	-0.0455 ± 0.026	-0.005 ± 0.042	0.014 ± 0.1	-0.006 ± 0.0071	0.004 ± 0.014	0.007 ± 0.04	-0.0125 ± 0.021	-0.0095 ± 0.00071	0.019 ± 0.0057
BE3C:CXCL11/I-TAC	0.0215 ± 0.053	0.025 ± 0.078	-0.0025 ± 0.0078	0.0085 ± 0.012	0.0085 ± 0.0078	-0.114 ± 0.047	0.0195 ± 0.016	0.0015 ± 0.012	-0.006 ± 0.0099	-0.0095 ± 0.069	0.021 ± 0.038	0.0255 ± 0.011	0.0495 ± 0.025	0.003 ± 0.017	0.0165 ± 0.028	0.0315 ± 0.046	0.004 ± 0.0014	0.0075 ± 0.0078	0.0155 ± 0.012
SAg:CD69	-0.013 ± 0.016	-0.022 ± 0.013	0.0345 ± 0.073	0.0345 ± 0.056	0.0315 ± 0.054	-0.0285 ± 0.018	-0.0395 ± 0.0021	-0.0205 ± 0.00071	-0.0515 ± 0.046	-0.0145 ± 0.029	-0.0175 ± 0.012	-0.004 ± 0.03	0.0045 ± 0.013	-0.015 ± 0.018	0.0185 ± 0.0092	0.0045 ± 0.023	-0.0265 ± 0.00071	-0.0115 ± 0.011	-0.0005 ± 0.0092
LPS:M-CSF	-0.019 ± 0.021	-0.0635 ± 0.00071	0.002 ± 0.0099	0.0175 ± 0.023	0.0005 ± 0.00071	0.049 ± 0.0028	-0.0345 ± 0.0021	-0.0145 ± 0.029	-0.0245 ± 0.00071	-0.008 ± 0.027	-0.0185 ± 0.015	-0.0405 ± 0.013	-0.02 ± 0.024	-0.01 ± 0.0014	-0.0015 ± 0.029	0.0125 ± 0.049	-0.041 ± 0.027	0.005 ± 0.057	0.029 ± 0.044
4H:CD106/VCAM-1	-0.035 ± 0.018	-0.0485 ± 0.0064	-0.003 ± 0.0028	-0.007 ± 0.018	-0.007 ± 0.017	-0.03 ± 0.0057	-0.014 ± 0.0042	-0.004	-0.0205 ± 0.022	-0.002 ± 0.062	-0.029 ± 0.017	-0.0345 ± 0.019	-0.0295 ± 0.03	-0.0075 ± 0.0035	0.0115 ± 0.0021	0.018 ± 0.021	-0.025 ± 0.023	-0.0105 ± 0.013	0.0085 ± 0.0078

Reference: the supplement of paper PMC10331698
